Data: US20120270237A9, “METHODS FOR THE IDENTIFICATION OF KINASE INTERACTING MOLECULES AND FOR THE PURIFICATION OF KINASE PROTEINS” (Cellzone AG, priority 2009, published 2012)

Biological target: T1, MAP3K5 (Homo sapiens, UniProt Q99683)
T1 sequence (Q99683 1-1374): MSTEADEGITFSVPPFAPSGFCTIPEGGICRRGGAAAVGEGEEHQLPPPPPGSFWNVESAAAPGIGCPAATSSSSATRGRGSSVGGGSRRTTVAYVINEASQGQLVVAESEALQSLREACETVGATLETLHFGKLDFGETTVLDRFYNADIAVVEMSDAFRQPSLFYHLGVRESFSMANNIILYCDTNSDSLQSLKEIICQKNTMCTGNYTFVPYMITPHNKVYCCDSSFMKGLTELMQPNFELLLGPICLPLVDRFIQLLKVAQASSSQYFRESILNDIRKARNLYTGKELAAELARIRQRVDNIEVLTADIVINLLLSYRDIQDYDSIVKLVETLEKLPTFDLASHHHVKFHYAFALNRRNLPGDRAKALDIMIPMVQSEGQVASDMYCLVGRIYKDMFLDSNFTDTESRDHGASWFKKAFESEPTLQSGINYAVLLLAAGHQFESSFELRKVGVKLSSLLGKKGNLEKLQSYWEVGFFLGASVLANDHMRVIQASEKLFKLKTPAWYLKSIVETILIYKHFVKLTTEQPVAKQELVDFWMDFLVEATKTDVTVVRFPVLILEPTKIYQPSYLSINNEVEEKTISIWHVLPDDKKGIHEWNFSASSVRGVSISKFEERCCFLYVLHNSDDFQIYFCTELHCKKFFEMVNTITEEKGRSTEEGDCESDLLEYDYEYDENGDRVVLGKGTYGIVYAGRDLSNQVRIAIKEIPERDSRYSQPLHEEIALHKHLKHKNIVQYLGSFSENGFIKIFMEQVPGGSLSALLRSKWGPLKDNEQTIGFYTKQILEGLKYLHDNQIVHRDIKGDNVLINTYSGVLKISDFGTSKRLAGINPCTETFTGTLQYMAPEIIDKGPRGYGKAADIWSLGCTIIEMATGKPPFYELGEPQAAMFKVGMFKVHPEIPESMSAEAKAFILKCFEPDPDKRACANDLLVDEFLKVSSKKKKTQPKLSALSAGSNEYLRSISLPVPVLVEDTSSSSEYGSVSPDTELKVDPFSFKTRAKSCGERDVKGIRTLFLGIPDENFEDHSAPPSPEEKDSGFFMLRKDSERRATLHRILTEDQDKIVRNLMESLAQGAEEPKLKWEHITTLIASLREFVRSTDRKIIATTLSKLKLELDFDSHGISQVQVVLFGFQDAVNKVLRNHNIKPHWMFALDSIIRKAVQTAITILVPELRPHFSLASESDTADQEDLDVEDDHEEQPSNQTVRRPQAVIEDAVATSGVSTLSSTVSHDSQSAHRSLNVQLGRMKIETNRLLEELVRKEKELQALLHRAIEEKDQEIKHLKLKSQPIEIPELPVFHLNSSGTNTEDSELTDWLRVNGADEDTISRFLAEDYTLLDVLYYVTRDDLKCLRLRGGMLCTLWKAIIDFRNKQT
Assay: Kinobeads competition binding, HeLa Placenta lysate mix
Set-up: endogenous in cells
Settings: 10 μM free compound
How it was run: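 Free compound (10 μM) was allowed to bind lysate proteins before affinity beads bearing immobilized compound were added. Bound material, together with that from a DMSO control, was digested and measured by iTRAQ LC-MS/MS.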

inhibition at 10 µM: 86%
SMILES: CS(=O)(=O)Nc1ccccc1Nc1nc(Nc2cccc(OCCN)c2)ncc1Cl [CZC31326, N-(2-(2-(3-(2-aminoethoxy)phenylamino)-5-chloropyrimidin-4-ylamino)phenyl)methanesulfonamide]
